Measurements reported in ChEMBL document CHEMBL1817626, “The structure-activity relationship of urea derivatives as anti-tuberculosis agents” (Bioorg Med Chem, 2011).
Values after ≈ are worked out from the molar mass of the structure shown.

How the values were obtained:
[1] = target: T1, Bifunctional epoxide hydrolase 2 (Homo sapiens, UniProt P34913); test: Inhibition of human recombinant soluble epoxide hydrolase using CMNPC as substrate after 10 mins by fluorescent assay
T1 sequence (P34913 whole entry): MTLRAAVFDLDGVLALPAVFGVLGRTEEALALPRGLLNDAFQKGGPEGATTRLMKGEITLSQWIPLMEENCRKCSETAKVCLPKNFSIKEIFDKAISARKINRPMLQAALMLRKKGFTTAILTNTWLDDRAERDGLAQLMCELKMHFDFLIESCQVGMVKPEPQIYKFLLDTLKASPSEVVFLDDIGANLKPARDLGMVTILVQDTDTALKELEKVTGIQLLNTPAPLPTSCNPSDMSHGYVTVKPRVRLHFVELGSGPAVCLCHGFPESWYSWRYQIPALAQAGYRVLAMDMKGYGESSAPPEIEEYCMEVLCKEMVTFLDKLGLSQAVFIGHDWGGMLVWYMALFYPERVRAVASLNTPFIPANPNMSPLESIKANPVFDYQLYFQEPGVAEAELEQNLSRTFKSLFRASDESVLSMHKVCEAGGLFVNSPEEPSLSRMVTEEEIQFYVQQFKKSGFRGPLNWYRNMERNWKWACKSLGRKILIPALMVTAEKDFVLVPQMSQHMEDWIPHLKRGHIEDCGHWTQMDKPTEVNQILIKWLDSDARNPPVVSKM

Staphylococcus aureus = test: Antibacterial activity against Staphylococcus aureus; assay type: functional
Vero = test: Cytotoxicity against african green monkey Vero cells after 72 hrs by MTT assay; assay type: cell-based; settings: Chlorocebus sabaeus
[2] = target: T2, Epoxide hydrolase B (Mycobacterium tuberculosis) (UniProt P95276); test: Inhibition of Mycobacterium tuberculosis recombinant EphB expressed in Escherichia coli BL21 using CMNPC as substrate at 10 nM after 30 mins by fluorescent assay relative to control
T2 sequence (whole entry): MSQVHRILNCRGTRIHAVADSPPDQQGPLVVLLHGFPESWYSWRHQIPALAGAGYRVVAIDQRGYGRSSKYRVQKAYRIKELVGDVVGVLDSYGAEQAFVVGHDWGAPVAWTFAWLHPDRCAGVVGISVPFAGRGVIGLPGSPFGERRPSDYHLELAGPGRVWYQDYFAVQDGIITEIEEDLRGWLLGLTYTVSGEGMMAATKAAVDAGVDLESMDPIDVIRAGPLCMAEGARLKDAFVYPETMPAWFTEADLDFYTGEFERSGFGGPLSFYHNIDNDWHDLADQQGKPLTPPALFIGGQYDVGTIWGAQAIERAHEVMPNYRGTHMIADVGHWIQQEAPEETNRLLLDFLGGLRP

Escherichia coli [3] = test: Antibacterial activity against Escherichia coli K12; assay type: functional; settings: K-12
[4] = test system: Mycolicibacterium smegmatis; test: microbe, parasite or virus in culture; settings: str. MC2 155, 168 h
Klebsiella pneumoniae = test: Antibacterial activity against Klebsiella pneumoniae; assay type: functional
Enterococcus faecium = test: Antibacterial activity against Enterococcus faecium; assay type: functional
Pseudomonas aeruginosa = test: Antibacterial activity against Pseudomonas aeruginosa; assay type: functional
Bacillus anthracis = test: microbe, parasite or virus in culture
[5] = target: T3, Hydrolase, alpha/beta hydrolase fold family (Mycobacterium tuberculosis) (UniProt O69638); test: Inhibition of Mycobacterium tuberculosis recombinant EphE expressed in Escherichia coli BL21 using CMNPC as substrate at 10 nM after 30 mins by fluorescent assay relative to control
T3 sequence (whole entry): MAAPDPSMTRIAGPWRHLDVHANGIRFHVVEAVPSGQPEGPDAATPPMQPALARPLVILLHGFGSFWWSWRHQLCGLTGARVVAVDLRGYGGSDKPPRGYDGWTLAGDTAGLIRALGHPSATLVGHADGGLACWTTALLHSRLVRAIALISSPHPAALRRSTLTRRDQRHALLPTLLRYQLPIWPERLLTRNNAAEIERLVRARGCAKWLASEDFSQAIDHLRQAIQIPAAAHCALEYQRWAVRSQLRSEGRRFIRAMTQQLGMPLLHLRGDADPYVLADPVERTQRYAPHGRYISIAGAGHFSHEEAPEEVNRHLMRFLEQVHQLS

[6] = test system: Mycobacterium tuberculosis; test: microbe, parasite or virus in culture; settings: H37Rv, 168 h
Enterococcus faecalis = test: Antibacterial activity against Enterococcus faecalis; assay type: functional
Escherichia coli [7] = test: Antibacterial activity against Escherichia coli […] TolC; assay type: functional

Row | Compound | IC50 [1] [nM] | MIC (Staphylococcus aureus) [µg/mL] | IC50 (Vero) [µg/mL] | inhibition [2] [%] | MIC (Escherichia coli [3]) [µg/mL] | MIC [4] [µg/mL] | MIC (Klebsiella pneumoniae) [µg/mL] | MIC (Enterococcus faecium) [µg/mL] | MIC (Pseudomonas aeruginosa) [µg/mL] | MIC (Bacillus anthracis) [µg/mL] | inhibition [5] [%] | MIC [6] [µg/mL] | MIC (Enterococcus faecalis) [µg/mL] | MIC (Escherichia coli [7]) [µg/mL]
1 | CC1(C)C2CCC(CNC(=O)Nc3ccc(F)c(F)c3F)C1C2 (stereo not drawn) | 0.4 | 3.13 (≈ 9.59 µM) | 15.5 (≈ 47.5 µM) | 38.6 | > 200 | 1.6 (≈ 4.9 µM) | > 200 | > 200 | > 200 | 1.6 (≈ 4.9 µM) | 103 | 0.2 (≈ 0.613 µM) | > 200 | –
2 | CC(C)CCOc1ccc(NC(=O)Nc2ccc(OCCC(C)C)cc2)cc1 | 6.5 | > 200 | – | 14.6 | > 200 | > 200 | > 200 | > 200 | > 200 | > 200 | 88.8 | 200 (≈ 520 µM) | > 200 | 3.12 (≈ 8.11 µM)
3 | O=C(Nc1ccc(F)c(F)c1F)NC1CCCC1 | 56.2 | > 200 | – | 86.4 | > 200 | 200 (≈ 774 µM) | > 200 | > 200 | > 200 | > 200 | 36 | 50 (≈ 194 µM) | > 200 | > 200
4 | O=C(Nc1ccccc1)Nc1ccccc1 | 390 | – | – | – | – | – | – | – | – | – | – | – | – | –
5 | O=C(Nc1ccc(F)c(F)c1F)NC1C2CC3CC(C2)CC1C3 (stereo not drawn) | – | > 200 | – | – | > 200 | – | > 200 | > 200 | > 200 | > 200 | 71.4 | – | > 200 | > 200
6 | CN(C(=O)NC1C2CC3CC(C2)CC1C3)c1ccc(F)c(F)c1F (stereo not drawn) | 38.1 | > 200 | – | 6.7 | > 200 | – | > 200 | > 200 | > 200 | > 200 | 22.8 | 6 (≈ 17.7 µM) | > 200 | 25 (≈ 73.9 µM)
7 | O=C(Nc1ccc(F)c(F)c1F)NC1CCCCCCC1 | 0.4 | – | 63.4 (≈ 211 µM) | 95.7 | > 200 | 0.8 (≈ 2.66 µM) | > 200 | > 200 | > 200 | > 200 | 91.6 | – | > 200 | 3.12 (≈ 10.4 µM)
8 | CCCCCCCNC(=O)Nc1cccc(C(F)(F)F)c1F | 0.4 | > 200 | – | 5.5 | > 200 | 100 (≈ 312 µM) | > 200 | > 200 | > 200 | > 200 | 46.8 | 3 (≈ 9.37 µM) | > 200 | > 200
9 | O=C(Nc1ccc(F)c(F)c1F)NC1CCCCC1 | 1.2 | > 200 | 15.9 (≈ 58.4 µM) | 96.4 | > 200 | 12.5 (≈ 45.9 µM) | > 200 | > 200 | > 200 | > 200 | 65.6 | – | > 200 | > 200
10 | NNC(=O)c1ccncc1 [ISONIAZID] | – | – | – | – | – | – | – | – | – | – | – | 0.01 (≈ 0.0729 µM) | – | –
11 | CCOCCNC(=O)NC12CC3CC(CC(C3)C1)C2 | 525 | > 200 | – | 18.7 | > 200 | > 200 | > 200 | > 200 | > 200 | > 200 | 17.6 | 50 (≈ 188 µM) | > 200 | > 200
